In paper PMC6354011 (Scientific Reports, 2019):
“And” between values parts separate entries of the source, which are not always exact repeats. Identical values can stand only once. Like-named read-outs stand apart in the source and are kept apart here.

Experiments:
[1] = biological target: T1, equine serum butyrylcholinesterase (BChE, EC 3.1.1.8) (Equus caballus, UniProt P81908); test: biochemical; assay type: biochemical; settings: for BChE % inhibition: single read
T1 construct: equine serum butyrylcholinesterase (BChE, EC 3.1.1.8); purchased Sigma-Aldrich (USA); host or cells: equine serum
T1 sequence (P81908 whole entry): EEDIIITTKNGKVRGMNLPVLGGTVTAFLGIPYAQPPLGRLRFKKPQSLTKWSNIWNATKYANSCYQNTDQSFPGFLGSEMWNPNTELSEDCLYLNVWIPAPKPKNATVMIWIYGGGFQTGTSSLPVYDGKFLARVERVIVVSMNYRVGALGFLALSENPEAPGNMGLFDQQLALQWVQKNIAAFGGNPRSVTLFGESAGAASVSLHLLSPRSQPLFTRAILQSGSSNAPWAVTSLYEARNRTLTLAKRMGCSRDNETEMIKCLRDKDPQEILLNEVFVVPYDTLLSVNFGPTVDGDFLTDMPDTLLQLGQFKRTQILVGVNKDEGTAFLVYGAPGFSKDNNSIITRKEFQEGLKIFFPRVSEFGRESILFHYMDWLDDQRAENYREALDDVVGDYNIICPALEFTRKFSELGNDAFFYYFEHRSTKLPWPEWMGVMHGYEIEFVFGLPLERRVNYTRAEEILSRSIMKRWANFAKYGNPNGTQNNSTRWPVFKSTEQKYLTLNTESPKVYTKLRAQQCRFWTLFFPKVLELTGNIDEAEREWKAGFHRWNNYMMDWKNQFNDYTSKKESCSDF
Text: (§1) Ellman’s colorimetric method with minor modification was employed in the determination of AChE and BChE inhibitory activities. Electric eel acetylcholinesterase (AChE, EC 3.1.1.7), equine serum butyrylcholinesterase (BChE, EC 3.1.1.8), 5,5′-Dithiobis(2-nitrobenzoic acid) (DTNB) and sodium phosphate dibasic (Na2HPO4) were purchased from Sigma-Aldrich (USA). S-butyrylthiocholine chloride (BTCC) from Sigma-Aldrich (Switzerland), acetylthiocholine iodide (ATCI) from Sigma-Aldrich (United Kingdom) and sodium phosphate monobasic (NaH2PO4) from Sigma-Aldrich (Germany) were purchased. […] Ethanol was used to replace the sample as a control in this assay.

[2] = biological target: T2, Electric eel acetylcholinesterase (AChE, EC 3.1.1.7) (Electrophorus electricus, UniProt O42275); test: biochemical
T2 construct: purchased Sigma-Aldrich (USA)
T2 sequence (O42275 24-633): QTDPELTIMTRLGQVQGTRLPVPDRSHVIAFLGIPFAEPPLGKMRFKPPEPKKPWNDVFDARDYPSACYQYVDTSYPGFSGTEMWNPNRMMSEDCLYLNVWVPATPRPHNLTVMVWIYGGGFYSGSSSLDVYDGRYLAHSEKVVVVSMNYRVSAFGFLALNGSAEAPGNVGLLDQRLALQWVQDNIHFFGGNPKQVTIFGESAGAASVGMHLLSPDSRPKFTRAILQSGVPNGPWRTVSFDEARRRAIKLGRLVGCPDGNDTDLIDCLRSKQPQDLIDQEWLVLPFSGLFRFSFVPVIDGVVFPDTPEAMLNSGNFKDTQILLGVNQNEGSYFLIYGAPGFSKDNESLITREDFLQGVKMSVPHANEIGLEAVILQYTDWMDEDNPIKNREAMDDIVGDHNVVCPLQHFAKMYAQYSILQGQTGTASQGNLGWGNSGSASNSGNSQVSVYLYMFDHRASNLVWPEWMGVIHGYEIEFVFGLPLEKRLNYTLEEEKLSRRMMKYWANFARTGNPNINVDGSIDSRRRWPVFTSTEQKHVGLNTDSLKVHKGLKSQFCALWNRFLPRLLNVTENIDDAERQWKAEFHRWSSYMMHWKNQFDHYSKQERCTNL
Text: as §1

[3] = mean ± SD, n = 3, read-out: IC50 (µM) BChE
[4] = mean ± SD, n = 3, read-out: IC50 (µM) AChE
[5] = N = 3, unit not given (µg/mL scale), read-out: BChE IC50, Tukey HSD homogeneous subsets (group mean) (converted)
[6] = average of three reads, read-out: BChE IC50 (µM) Average
[7] = average of three reads, read-out: BChE IC50 (µg/mL) Average (converted)
[8] = first read, read-out: BChE IC50 (µM) First read
[9] = first read, read-out: BChE IC50 (µg/mL) First read (converted)
[10] = second read, read-out: BChE IC50 (µM) Second read
[11] = second read, read-out: BChE IC50 (µg/mL) Second read (converted)
[12] = third read, read-out: BChE IC50 (µM) Third read
[13] = third read, read-out: BChE IC50 (µg/mL) Third read (converted)
[14] = average of three reads, read-out: AChE IC50 (µM) Average
[15] = average of three reads, read-out: AChE IC50 (µg/mL) Average (converted)
[16] = first read, read-out: AChE IC50 (µM) First read
[17] = second read, read-out: AChE IC50 (µM) Second read
[18] = single read, unit not printed at place (µg/mL), read-out: AChE IC50 from regression on raw-data page (converted)
[19] = third read, read-out: AChE IC50 (µM) Third read
[20] = second read, read-out: AChE IC50 (µg/mL) Second read (converted)
[21] = third read, read-out: AChE IC50 (µg/mL) Third read (converted)
[22] = first read, read-out: AChE IC50 (µg/mL) First read (converted)

SMILES | IC50 [1, 3] [µM] | IC50 [2, 4] [µM] | IC50 [1, 5] [µM] | IC50 [1, 6] [µM] | IC50 [1, 7] [µM] | BChE % inhibition ([1]; conc 50 (µg/mL)) | BChE % inhibition ([1]; conc 100 (µg/mL)) | IC50 [1, 8] [µM] | IC50 [1, 9] [µM] | IC50 [1, 10] [µM] | IC50 [1, 11] [µM] | IC50 [1, 12] [µM] | IC50 [2, 14] [µM] | IC50 [2, 15] [µM] | AChE % inhibition ([2]; conc 100 (µg/mL), single read) | IC50 [2, 16] [µM] | IC50 [2, 17] [µM] | IC50 [2, 19] [µM] | IC50 [2, 20] [µM] | IC50 [2, 21] [µM] | further results
c1ccn2cc(C34CC5CC(CC(C5)C3)C4)nc2c1 [Compound 2a, 2-(adamantan-1-yl)imidazo[1,2-a]pyridine] | > 2000 | > 2000 |  |  |  |  |  |  |  |  |  |  |  |  |  |  |  |  |  |  | 
Cc1cccn2cc(C34CC5CC(CC(C5)C3)C4)nc12.O [Compound 2b, 2-(adamantan-1-yl)-8-methylimidazo[1,2-a]pyridine hydrate] | 706 ± 37 | 657 ± 60 | 663 | 706 | 660 | 21.17% and 17.3469% and 18.49% | 28.06% and 27.68% and 30.36% | 681 | 637 | 748 | 700 | 689 | 657 | 614 | 27.71% and 37.97% and 34.60% | 721 | 646 | 603 |  |  | BChE % inhibition ([1]; conc 200 (µg/mL)): 49.87% and 45.66% and 43.75%; BChE % inhibition ([1]; conc 300 (µg/mL)): 64.41% and 61.35% and 67.86%; BChE % inhibition ([1]; conc 400 (µg/mL)): 72.45% and 75.51%; BChE % inhibition ([1]; conc 500 (µg/mL)): 80.48% and 74.74% and 73.60%; BChE % inhibition ([1]; conc 600 (µg/mL)): 81.63% and 77.81%; BChE % inhibition ([1]; conc 700 (µg/mL)): 82.40% and 85.08% and 88.14%; IC50 [1, 13]: 644 µM; IC50 ([2]; N = 3, unit not printed (µg/mL scale), read-out: AChE IC50, Tukey HSD homogeneous subsets (group mean) (converted)): 614 µM; AChE % inhibition ([2]; conc 50 (µg/mL), single read): 23.63% and 19.6906% and 32.91%; AChE % inhibition ([2]; conc 150 (µg/mL), single read): 38.54% and 49.65% and 47.82%; AChE % inhibition ([2]; conc 200 (µg/mL), single read): 52.60% and 54.71% and 61.74%; AChE % inhibition ([2]; conc 250 (µg/mL), single read): 60.34% and 65.68% and 64.70%; AChE % inhibition ([2]; conc 300 (µg/mL), single read): 75.67% and 76.23% and 73.56%; IC50 [2, 18]: 674 µM and 605 µM and 564 µM
Cc1ccn2cc(C34CC5CC(CC(C5)C3)C4)nc2c1.O [Compound 2c, 2-(adamantan-1-yl)-7-methylimidazo[1,2-a]pyridine hydrate] | > 2000 | 270 ± 21 |  |  |  |  |  |  |  |  |  |  | 270 | 252 | 56.96% and 48.25% and 49.14% | 293 | 267 | 250 | 249 | 234 | AChE % inhibition ([2]; conc 25 (µg/mL), single read): 20.55% and 27.0778% and 32.32%; AChE % inhibition ([2]; conc 50 (µg/mL), single read): 41.33% and 47.36% and 42.61%; AChE % inhibition ([2]; conc 150 (µg/mL), single read): 68.34% and 71.41% and 72.20%; AChE % inhibition ([2]; conc 200 (µg/mL), single read): 71.21% and 69.72% and 76.25%; AChE % inhibition ([2]; conc 250 (µg/mL), single read): 76.15% and 78.73% and 78.33%; IC50 [2, 18]: 274 µM
Cc1ccc2nc(C34CC5CC(CC(C5)C3)C4)cn2c1 [Compound 2d, 2-(adamantan-1-yl)-6-methylimidazo[1,2-a]pyridine] | > 2000 | > 2000 |  |  |  |  |  |  |  |  |  |  |  |  |  |  |  |  |  |  | 
Clc1ccn2cc(C34CC5CC(CC(C5)C3)C4)nc2c1 [Compound 2e, 2-(adamantan-1-yl)-7-chloroimidazo[1,2-a]pyridine hydrate] | > 2000 | > 2000 |  |  |  |  |  |  |  |  |  |  |  |  |  |  |  |  |  |  | 
c1ccc(-c2ccc(-c3cn4ccccc4n3)cc2)cc1 [Compound 2f, 2-([1,1′-biphenyl]-4-yl)imidazo[1,2-a]pyridine] | > 2000 | 208 ± 17 |  |  |  |  |  |  |  |  |  |  | 208 | 208 |  | 228 | 196 | 200 | 196 | 200 | AChE % inhibition ([2]; conc 30 (µg/mL), single read): -1.6523% and -0.07%; AChE % inhibition ([2]; conc 40 (µg/mL), single read): 19.47% and 31.90% and 23.42%; AChE % inhibition ([2]; conc 60 (µg/mL), single read): 46.62% and 65.66% and 72.27%; AChE % inhibition ([2]; conc 70 (µg/mL), single read): 57.54% and 72.63% and 80.68%; AChE % inhibition ([2]; conc 80 (µg/mL), single read): 86.28% and 82.61% and 80.17%; IC50 [2, 22]: 228 µM
Cc1cccn2cc(-c3ccc(-c4ccccc4)cc3)nc12 [Compound 2g, 2-([1,1′-biphenyl]-4-yl)-8-methylimidazo[1,2-a]pyridine] | 315 ± 6 | 288 ± 48 | 315 | 315 | 315 |  | 61.12% and 73.89% and 66.92% | 311 | 310 | 322 | 322 | 312 | 288 | 288 | 66.67% and 62.62% and 65.90% | 343 | 264 | 258 | 263 | 258 | BChE % inhibition ([1]; conc 60 (µg/mL)): 7.74% and 0.19% and 6.00%; BChE % inhibition ([1]; conc 80 (µg/mL)): 35.59% and 45.45% and 37.33%; BChE % inhibition ([1]; conc 90 (µg/mL)): 48.36% and 35.01% and 51.84%; BChE % inhibition ([1]; conc 110 (µg/mL)): 84.33% and 65.76% and 66.92%; BChE % inhibition ([1]; conc 120 (µg/mL)): 106.96% and 76.79% and 121.47%; IC50 [1, 13]: 311 µM; AChE % inhibition ([2]; conc 150 (µg/mL), single read): 81.50% and 87.67% and 85.81%; AChE % inhibition ([2]; conc 200 (µg/mL), single read): 83.04% and 90.94% and 100.39%; AChE % inhibition ([2]; conc 250 (µg/mL), single read): 106.74% and 92.10% and 107.32%; AChE % inhibition ([2]; conc 300 (µg/mL), single read): 140.85% and 130.64% and 128.52%; IC50 [2, 22]: 343 µM
Cc1ccc2nc(-c3ccc(-c4ccccc4)cc3)cn2c1 [Compound 2h, 2-([1,1′-biphenyl]-4-yl)-6-methylimidazo[1,2-a]pyridine] | 496 ± 27 | 79 ± 10 | 484 | 496 | 496 | 28.12% and 20.13% and 20.63% | 19.13% and 27.12% and 17.64% | 485 | 484 | 477 | 476 | 528 | 79.2 | 79.1 | 99.77% and 84.22% and 106.56% | 83.8 | 86.3 | 67.4 | 86.2 | 67.3 | BChE % inhibition ([1]; conc 150 (µg/mL)): 48.09% and 45.09% and 49.08%; BChE % inhibition ([1]; conc 200 (µg/mL)): 83.03% and 81.03% and 75.54%; BChE % inhibition ([1]; conc 250 (µg/mL)): 102.50% and 115.97% and 86.02%; IC50 [1, 13]: 527 µM; AChE % inhibition ([2]; conc 25 (µg/mL), single read): 58.20% and 76.39% and 68.79%; AChE % inhibition ([2]; conc 50 (µg/mL), single read): 92.28% and 79.96% and 93.21%; AChE % inhibition ([2]; conc 75 (µg/mL), single read): 92.40% and 88.83% and 96.55%; IC50 [2, 22]: 83.7 µM
Clc1cccn2cc(-c3ccc(-c4ccccc4)cc3)nc12 [Compound 2i, 2-([1,1′-biphenyl]-4-yl)-8-chloroimidazo[1,2-a]pyridine] | > 2000 | 253 ± 25 |  |  |  |  |  |  |  |  |  |  | 253 | 253 | 49.40% and 76.34% and 66.48% | 269 | 225 | 266 | 224 | 265 | AChE % inhibition ([2]; conc 50 (µg/mL), single read): 10.30% and 14.24% and 6.35%; AChE % inhibition ([2]; conc 75 (µg/mL), single read): 37.90% and 58.60% and 35.60%; AChE % inhibition ([2]; conc 125 (µg/mL), single read): 81.60% and 94.74% and 74.70%; AChE % inhibition ([2]; conc 150 (µg/mL), single read): 92.44% and 89.16% and 84.56%; AChE % inhibition ([2]; conc 200 (µg/mL), single read): 97.37% and 103.61% and 101.97%; IC50 [2, 22]: 268 µM
Clc1ccc(-c2cn3ccccc3n2)cc1Cl [Compound 2j, 2-(3,4-dichlorophenyl)imidazo[1,2-a]pyridine] |  | > 2000 | 75.6 |  |  | 63.01% and 66.76% and 69.65% | 91.04% and 87.86% and 90.17% |  |  |  |  |  |  |  |  |  |  |  |  |  | BChE % inhibition ([1]; conc 12.5 (µg/mL)): 27.75% and 48.55% and 34.78%; BChE % inhibition ([1]; conc 25 (µg/mL)): 50.87% and 55.49% and 62.14%
Cc1cccn2cc(-c3ccc(Cl)c(Cl)c3)nc12 [Compound 2k, 2-(3,4-dichlorophenyl)-8-methylimidazo[1,2-a]pyridine] | 191 ± 29 | > 2000 | 197 | 191 | 191 | 44.12% and 38.16% and 45.75% | 66.91% and 74.50% | 225 | 224 | 177 | 176 | 172 |  |  |  |  |  |  |  |  | BChE % inhibition ([1]; conc 150 (µg/mL)): 80.47% and 68.54% and 70.16%; BChE % inhibition ([1]; conc 200 (µg/mL)): 146.65% and 115.19%; IC50 [1, 13]: 171 µM
COc1ccc(-c2cn3ccccc3n2)cc1 [Compound 2l, 2-(4-methoxyphenyl)imidazo[1,2-a]pyridine] | > 2000 | > 2000 |  |  |  |  |  |  |  |  |  |  |  |  |  |  |  |  |  |  | 
COc1ccc(-c2cn3cccc(C)c3n2)cc1 [Compound 2m, 2-(4-methoxyphenyl)-8-methylimidazo[1,2-a]pyridine] | > 2000 | > 2000 |  |  |  |  |  |  |  |  |  |  |  |  |  |  |  |  |  |  | 
